Results taken from US20150352072A1, “ZINC N-ACETYL TAURINATE FOR THE TREATMENT OF PROSTATE CANCER” (TRI-INOV, priority 2011, published 2015).
Entries after “also recorded” stand apart in the source; their conditions may differ.

Experiments:
Format in all cases: cell-based
Bax/Bcl-2 ratio = experiment: Bax/Bcl-2 mRNA ratio by RT-Q-PCR in LNCaP cells; conditions: 10^−5-10^−9M, 48 hours
Description: (§1) For the dose-dependence studies, the cells (50% confluent) were treated with ATA-Zn at the concentrations of 10^−3, 10^−4, 10^−5, 10^−6, 10^−7, 10^−8 and 10^−9M, for 24 hours, 48 hours and 72 hours in their respective growth medium. After 48 h of treatment, the cells were harvested and counted in the pellet. In parallel, the cell lysates were prepared in order to extract the mRNA for RT-Q-PCR and Western blotting.
(§2) The mRNA was extracted from the cells in culture using the “SV Total RNA isolation” kit from the company Promega and according to the procedure hereinafter:
(§3) A reverse transcription of the RNA was then carried out using the ready to go kit (kit known as “Ready To Go, You Prime First Strand Beads” commercially available from Amersham Biosciences, Piscataway, United States) in accordance with the supplier's instructions using 3 μg of RNA.
(§4) The “LightCycler-Fast Start DNA Master SYBR Green I” test commercially available from Roche Diagnostics, Meylan, France, was used to quantify the gene expression by means of a real-time polymerase chain reaction (PCR). […]
LNCaP cells were incubated with various concentrations of ATA-Zn (10^−5-10^−9M) for 48 hours. The change in the synthesis of Bax mRNA and Bcl-2 mRNA was measured by RT-Q-PCR according to the procedure described previously in the section entitled “Materials and methods”.

SOD-1 protein = SOD-1 protein by Western blotting in LNCaP cells; conditions: 48 hours, standardized relative to actin
Description: (§5) The cells were lysed in the buffer for the radioimmunoprecipitation test, having the composition hereinafter:
(§6) The proteins were then separated by SDS-PAGE and were transferred onto a Hybond-P PVDF membrane (Amersham Biosciences, Pantin, France). The membranes were incubated for 1 hour at ambient temperature with a blocking solution consisting of skimmed milk powder at 5% in TBS-T buffer (50 mM Tris-HCl, pH 8.0, 150 mM NaCl, Tween-20 at 0.1%).
(§7) The membranes were then incubated with rabbit primary antibodies directed against cyclin-D1 (No. 29785); the markers Bax (No. 1063.1) and BCL-2 (No. 1017-1); Nrf-2 (No. 2178-1) and SOD-1 (No. 2018-1) all sold by the company Epitomies under the references indicated above, and the A2103 anti-actin, N-terminal, antibodies sold by the company Sigma-Aldrich (Saint Quentin Fallavier, France) in the blocking solution overnight at 4° C. The said antibodies were diluted in accordance with the manufacturer's instructions to 1/1000. The anti-actin antibodies served to standardize the membranes. […]
(§8) LNCaP cells were incubated with a range of ATA-Zn concentrations for 48 hours. The amount of Nrf-2 and SOD-1 proteins were then measured by Western blotting. The quantification was carried out with the “Quantity One” software and the results were standardized relative to the actin data. […]

Nrf-2 protein = Nrf-2 protein by Western blotting in LNCaP cells; conditions: 48 hours, standardized relative to actin
Description: as §5, §6, §7, §8

[1] = system: Normal prostate epithelial cells (PrECs); experiment: Cell count by Trypan blue exclusion, normal PrECs
Description: Normal prostate epithelial cells (PrECs) and the PrEC growth medium sold by the company Cambrex Bioscience (Walkersville, Md.) were used by way of comparison.
as §1
(§9) In order to evaluate the number of cells, the cell pellets were mixed with 1 ml of their respective medium and the cell viability and the number of cells were evaluated by means of a Trypan blue exclusion test.

cyclin-D1 mRNA [2] = experiment: Cyclin-D1 mRNA by RT-Q-PCR in LNCaP cells; conditions: 10^−5-10^−9M, after 24 hours of exposure
Description: as §1, §2, §3, §4
The amount of cyclin-D1 mRNA was measured by RT-Q-PCR according to the procedure previously described in the section entitled “Materials and methods”. […]

Bax and Bcl-2 = experiment: Bax/Bcl-2 mRNA by RT-Q-PCR in PrECs; conditions: Bax and Bcl-2 base amount too low for PCR amplification, a conclusion
Description: as §1, §2, §3
(§10) The “LightCycler-Fast Start DNA Master SYBR Green I” test commercially available from Roche Diagnostics, Meylan, France, was used to quantify the gene expression by means of a real-time polymerase chain reaction (PCR). The PCR (program: 95° C., 30 seconds; 40 cycles: 95° C., 5 seconds; 60° C., 35 seconds) was carried out using a “Mastercycler ep realplex” apparatus sold by the company Eppendorf, Hamburg, Germany.
(§11) The expression of the target gene was standardized relative to the GAPDH housekeeping gene. […]

cyclin-D1 mRNA [3] = experiment: Cyclin-D1 mRNA by RT-Q-PCR in normal cells; conditions: normal cells (PrECs), 24 hours
Description: as §1, §2, §3, §10, §11

[4] = system: LNCaP prostate cancer cell line; experiment: Cell count by Trypan blue exclusion, LNCaP cancer cells
Description: The LNCaP prostate cancer cell line, deposited in the ATCC under No. CRL-1740, was used.
The cell culture medium was RPMI 1640 complete growth medium (ATCC No. 30-2001), containing 2 mM L-glutamine, 10 mM HEPES and 1.0 mM sodium pyruvate, to which the following were added: • 1) sodium carbonate and glucose in amounts sufficient to obtain a sodium carbonate concentration of 20 mM and a glucose concentration of 25 mM, • 2) […] by volume of a mixture of antibiotics (10 μg/ml of gentamycin, 100 IU of penicillin, 100 μg/ml of streptomycin), and • 3) 10% by volume of fetal calf serum.
as §1, §9
The viable cells and the non-viable cells were counted after Trypan blue exclusion. […] The mortality evolved in the opposite direction, with a maximum increase of about 50%. The concentration of 10^−3M was toxic. The results obtained are reported on the graphs of FIGS. 1a and 1b, which give the percentage of cancer cells relative to the control (cell culture without ATA-Zn) as a function of the concentration of ATA-Zn. FIG. 1a relates to the viable cells and FIG. 1b relates to the non-viable cells.

zinc N-acetyltaurinate [ATA-Zn]
Bax/Bcl-2 ratio (mRNA) (Bax/Bcl-2 ratio): greatly increased | level of the SOD-1 protein (SOD-1 protein): decreases | Nrf-2 protein (Nrf-2 protein): repressed | toxicity at the dose of 10^−3M ([1]; PrECs, 10^−3M): toxic | state of cells after 72 hours with 10^−3M ([1]; PrECs, 10^−3M, 72 hours of incubation): completely dead | effect on the number of cells ([1]; normal PrECs, up to 72 hours of incubation, doses below 10^−3M): no effect | synthesis of cyclin-D1 mRNA (cyclin-D1 mRNA [2]): reduces | apoptosis in normal PrECs (Bax and Bcl-2): not influenced | synthesis of cyclin-D1 mRNA (cyclin-D1 mRNA [3]): no effect | antiproliferative effect / number of cells ([4]; LNCaP cancer cells of the prostate, 48 hours, each dose): antiproliferative effect; also recorded: reduced the number of cells at each dose | toxicity at the concentration of 10^−3M ([4]; LNCaP, 10^−3M): toxic | maximum reduction of the number of cells ([4]; LNCaP, 48 hours of incubation, highest concentration (10^−4), relative to control): 25% | maximum increase of mortality (non-viable cells) ([4]; LNCaP, 48 hours of incubation, relative to control): about 50% | concentrations at which nontoxic ([4]; general statement on the in vitro cell tests): below 10^−3 M
